In patent US5527703A (Merck & Co., Inc., priority 1994, dated 1996):

What was measured:
[1] = molecular target: T1, GluClβ (Caenorhabditis elegans, UniProt Q17328); test: Activation of current in Xenopus oocytes expressing homomeric GluClβ (voltage clamp); type: cell-based, C. elegans
T1 construct: the full-length open reading frame of the GluCl cDNA encoding the GluClα (52,550 kDa) and GluClβ (49,900kDa) subunits; expressed in transfected cells; host or cells: Xenopus laevis oocytes injected with in vitro RNA
T1 sequence (Q17328 23-434): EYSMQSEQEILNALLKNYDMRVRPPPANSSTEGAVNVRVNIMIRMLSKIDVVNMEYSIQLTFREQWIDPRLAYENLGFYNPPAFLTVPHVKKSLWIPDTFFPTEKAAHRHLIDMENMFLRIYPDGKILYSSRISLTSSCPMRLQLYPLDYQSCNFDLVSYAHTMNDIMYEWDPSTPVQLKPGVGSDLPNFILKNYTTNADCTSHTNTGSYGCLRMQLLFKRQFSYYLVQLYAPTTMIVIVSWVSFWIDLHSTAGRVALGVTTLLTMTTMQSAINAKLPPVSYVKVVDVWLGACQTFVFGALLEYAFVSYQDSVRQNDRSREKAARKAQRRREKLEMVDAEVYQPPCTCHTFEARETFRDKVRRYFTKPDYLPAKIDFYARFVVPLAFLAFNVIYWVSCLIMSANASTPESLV
Protocol: (§1) Xenopus laevis oocytes were prepared and injected using standard methods previously described and known in the art [Arena, J. P., Liu. K. K., Paress, P. S. & Cully. D. F. Mol. Pharmacol. 40, 368-374 (1991 ); Arena, J. P., Liu, K. K., Paress, P. S., Schaeffer, J. M. & Cully, D. F. Mol. Brain Res. 15, 339-348 (1992)]. Adult female Xenopus laevis were anesthetized with 0.17% tricaine methanesulfonate and the ovaries were surgically removed and placed in a dish consisting of (mM): NaCl 1 82.5, KCl 2. MgCl2 1, CaCl2 1.8, HEPES 5 adjusted to pH 7.5 with NaOH (OR-2). Ovarian lobes were broken open, rinsed several times, and gently shaken in OR-2 containing 0.2% collagenase (Sigma, Type 1A) for 2-5 hours. When approximately 50% of the follicular layers were removed, Stage V and VI oocytes were selected and placed in media consisting of (mM): NaCl 86, KCl 2, MgCl2 1, CaCl2 1.8, HEPES 5, Na pyruvate 2.5, theophylline 0.5, gentamicin 0.1 adjusted to pH 7.5 with NaOH (ND-96) for 24-48 hours before injection. Oocytes were injected with 50-70 nl of poly(A^+) RNA (1 mg/ml) or 50 nl of GluClα (0.1-100 ng) and/or GluClβ (0.1-100 ng). Control oocytes were injected with 50 nl of water. Oocytes were incubated for 2-10 days in ND-96 before recording. Incubations and collagenase digestion were carried out at 18° C.
(§2) Recordings were made at room temperature 2-10 days after injection. Unless otherwise indicated recordings were made in standard frog saline consisting of (mM): NaCl 115, KCl 2, MgCl2 1, CaCl2 1.8, HEPES 10 adjusted to pH 7.5 with NaOH. Oocytes were voltage-clamped using a standard two microelectrode amplifier (Dagan 8500 or TEV-200, Minneapolis,Minn.). Pipettes were filled with 3M KCl and had resistances between 0.5-3.0 M.OMEGA.. A plexiglass recording chamber (volume 200 μl) was constantly perfused at a rate of 10 ml/min. The recording chamber was connected to ground with a Ag/AgCl electrode directly, or through a 3M KCl agar bridge when extracellular chloride was varied. For low chloride solutions NaCl was replaced with equimolar concentrations of sodium isethionic acid. For low sodium solutions NaCl was replaced with equimolar KCl or choline Cl. Data were acquired and analyzed using PCLAMP with a TL-1 interface (Axon Instruments, Foster City, Calif.). Membrane current at a holding potential of -80 mV was recorded. The amplitude of drug-sensitive current was determined by subtracting the holding current at -80 mV from the peak current obtained in the presence of drug. Data were filtered at 30 Hz and sampled at 16.6 Hz. Current/voltage relationships (I/V) and reversal potentials (Erev) were determined using a 1-3 sec voltage ramp over the voltage range of -110 to +80 mV. For the ramps, data were filtered at 0.3-3 kHz and sampled at 160 Hz. Current in drug free solution was subtracted from current in the presence of drug to obtain drug-sensitive current/voltage relationships.
(§3) Electrophysiological properties were examined in oocytes injected with in vitro RNA from pGluClα and pGluClβ (FIG. 5).

[2] = tested on: glutamate- and avermectin-sensitive chloride channel (C. elegans poly(A)+ RNA); test: Current in Xenopus oocytes injected with C. elegans poly(A)+ RNA; type: cell-based; conditions: for type of drug-sensitive current: poly(A)+ RNA injected oocytes
Protocol: as §1
Recordings were made at room temperature 2-10 days after injection. Unless otherwise indicated recordings were made in standard frog saline consisting of (mM): NaCl 115, KCl 2, MgCl2 1, CaCl2 1.8, HEPES 10 adjusted to pH 7.5 with NaOH. […] Data were acquired and analyzed using PCLAMP with a TL-1 interface (Axon Instruments, Foster City, Calif.). Membrane current at a holding potential of -80 mV was recorded. The amplitude of drug-sensitive current was determined by subtracting the holding current at -80 mV from the peak current obtained in the presence of drug. […] Current/voltage relationships (I/V) and reversal potentials (Erev) were determined using a 1-3 sec voltage ramp over the voltage range of -110 to +80 mV. […]

[3] = molecular target: T2, GluCl α&β (Caenorhabditis elegans, UniProt G5EBR3+Q17328); test: Modulation of glutamate-sensitive current by IVMPO4, GluCl α&β injected oocytes; type: cell-based, C. elegans
T2 construct: the full-length open reading frame of the GluCl cDNA encoding the GluClα (52,550 kDa) and GluClβ (49,900kDa) subunits; expressed in transfected cells; host or cells: Xenopus laevis oocytes injected with in vitro RNA
T2 sequence (G5EBR3 21-461): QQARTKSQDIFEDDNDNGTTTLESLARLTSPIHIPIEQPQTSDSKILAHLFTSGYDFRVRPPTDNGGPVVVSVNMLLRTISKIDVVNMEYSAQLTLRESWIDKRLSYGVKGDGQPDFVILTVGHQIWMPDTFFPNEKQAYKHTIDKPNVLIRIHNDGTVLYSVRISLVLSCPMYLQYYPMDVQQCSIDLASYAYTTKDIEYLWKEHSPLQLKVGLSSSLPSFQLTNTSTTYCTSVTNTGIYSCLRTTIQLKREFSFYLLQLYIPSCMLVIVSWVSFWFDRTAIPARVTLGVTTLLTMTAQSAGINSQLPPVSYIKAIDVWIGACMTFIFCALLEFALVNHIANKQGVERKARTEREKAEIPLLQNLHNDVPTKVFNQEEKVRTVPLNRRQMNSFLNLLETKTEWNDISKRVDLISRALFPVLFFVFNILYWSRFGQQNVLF
T2 sequence (Q17328 23-434): T1 sequence (Q17328 23-434)
Protocol: Xenopus laevis oocytes were prepared and injected using standard methods previously described and known in the art [Arena, J. P., Liu. K. K., Paress, P. S. & Cully. D. F. Mol. Pharmacol. 40, 368-374 (1991 ); Arena, J. P., Liu, K. K., Paress, P. S., Schaeffer, J. M. & Cully, D. F. Mol. Brain Res. 15, 339-348 (1992)]. Adult female Xenopus laevis were anesthetized with 0.17% tricaine methanesulfonate and the ovaries were surgically removed and placed in a dish consisting of (mM): NaCl 1 82.5, KCl 2. MgCl2 1, CaCl2 1.8, HEPES 5 adjusted to pH 7.5 with NaOH (OR-2). Ovarian lobes were broken open, rinsed several times, and gently shaken in OR-2 containing 0.2% collagenase (Sigma, Type 1A) for 2-5 hours. […]
Recordings were made at room temperature 2-10 days after injection. […] Data were acquired and analyzed using PCLAMP with a TL-1 interface (Axon Instruments, Foster City, Calif.). Membrane current at a holding potential of -80 mV was recorded. The amplitude of drug-sensitive current was determined by subtracting the holding current at -80 mV from the peak current obtained in the presence of drug. […] Current/voltage relationships (I/V) and reversal potentials (Erev) were determined using a 1-3 sec voltage ramp over the voltage range of -110 to +80 mV. […]

[4] = molecular target: T3, GluClα (Caenorhabditis elegans, UniProt G5EBR3); test: Activation of current in Xenopus oocytes expressing homomeric GluClα (voltage clamp); type: cell-based, C. elegans; design: the full-length open reading frame of the GluCl cDNA encoding the GluClα (52,550 kDa) and GluClβ (49,900kDa) subunits; expressed in transfected cells; host or cells: Xenopus laevis oocytes injected with in vitro RNA
T3 sequence (G5EBR3 21-461): T2 sequence (G5EBR3 21-461)
Protocol: as §1, §2, §3

Row | Molecule | response of homomeric GluClβ channels [1] | threshold for activation of homomeric GluClβ channels [1] | Hill coefficient (glutamate) ([1]; GluClβ) | voltage dependence of current ([1]; I/V, GluClβ) | EC50 ([1]; read-out: EC50 for glutamate, GluClβ alone) | type of drug-sensitive current [2] | Hill coefficient (glutamate) with coapplied IVMPO4 ([3]; coapplication of IVMPO4 and glutamate) | response of homomeric GluClα channels [4] | sensitivity of GluClα channels to glutamate ([4]; glutamate concentrations as high as 10 mM) | time for maximal activation of IVMPO4-sensitive current ([2]; poly(A)+ RNA) | potentiation of glutamate-sensitive current ([3]; IVMPO4 5 nM) | Hill coefficient (IVMPO4) ([4]; GluClα) | EC50 ([4]; GluClα, read-out: EC50 for IVMPO4 activation of current) | voltage dependence of current ([4]; I/V, GluClα) | time course for IVMPO4 activation ([4]; homomeric GluClα)
1 | N[C@@H](CCC(=O)O)C(=O)O [glutamate] | selectively responsive | 50 µM | 1.9 | steep outwardly rectifying voltage dependence | 380 µM | rapidly activating reversible | 1.3 | do not respond | insensitive | – | – | – | – | – | –
2 | ivermectin-4-O-phosphate [IVMPO4] | do not respond | – | – | – | – | irreversible | – | selectively responsive | – | 36 ± 3 s | 490±45% | 1.5 | 0.14 µM | essentially a linear voltage dependence | 18 ± 1 s
